What was measured:
[1] = Liquid
[2] = refractive index (Na D-line) (dimensionless); conditions: 298.15 K; 101.33 kPa; Liquid; Standard Abbe refractometry

CCCCCCCl [1-chlorohexane]
mass density [kg/m3], [1]
Conditions	298.15 K	308.15 K	318.15 K	328.15 K
100 kPa	873.42	863.99	854.58	845.18
2130 kPa	874.73	865.56	856.27	847.12
4150 kPa	876.45	867.35	858.19	849.17
6180 kPa	878.31	869.15	860.06	851.16
8210 kPa	879.79	870.9	861.91	853.13
10230 kPa	881.44	872.61	863.73	855.02
11250 kPa	882.22	873.47	864.62	855.98
12260 kPa	883.01	874.3	865.5	856.91
14290 kPa	884.61	875.96	867.28	858.76
16310 kPa	886.16	877.59	869	860.59
18340 kPa	887.68	879.2	870.66	862.35
20370 kPa	889.18	880.78	872.33	864.12
22390 kPa	890.65	882.35	873.95	865.82
24420 kPa	892.14	883.86	875.54	867.51
26450 kPa	893.54	885.35	877.12	869.18
28470 kPa	894.96	886.84	878.67	870.8
29490 kPa	895.65	887.56	879.43	871.6
30500 kPa	896.32	888.21	880.19	872.4
32530 kPa	897.71	889.73	881.7	873.95
34550 kPa	899.05	891.14	883.17	875.49
36580 kPa	900.38	892.52	884.63	877.05
38600 kPa	901.69	893.9	886.04	878.53
39620 kPa	902.33	894.55	886.76	879.31

Conditions	refractive index
[2]	1.4172

Source: the NIST ThermoML archive (doi:10.1016/j.jct.2005.09.003)
